Results from PubChem BioAssay (NCI).
Where “and” joins values, the source holds several entries; their conditions need not be identical. Equal entries are not always repeated.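 Each compound was tested at five concentrations against cells in 96-well plates for 48 hours. GI50 is the concentration that inhibits growth by half. TGI: concentration producing complete growth inhibition.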

What was measured:
Test in all cases: NCI-60 cell line screen, 48 h
CCRF-CEM leukemia = tested on: CCRF-CEM leukemia
HCT-116 colon = tested on: HCT-116 colon
IGROV1 ovarian = tested on: IGROV1 ovarian
K-562 leukemia = tested on: K-562 leukemia
MOLT-4 leukemia = tested on: MOLT-4 leukemia
NCI-H23 lung = tested on: NCI-H23 lung
OVCAR-5 ovarian = tested on: OVCAR-5 ovarian
RPMI-8226 leukemia = tested on: RPMI-8226 leukemia
SK-MEL-2 melanoma = tested on: SK-MEL-2 melanoma
SNB-75 CNS = tested on: SNB-75 CNS

Row | Compound | GI50 (CCRF-CEM leukemia) | TGI (CCRF-CEM leukemia) | GI50 (HCT-116 colon) | TGI (HCT-116 colon) | GI50 (IGROV1 ovarian) | TGI (IGROV1 ovarian) | GI50 (K-562 leukemia) | TGI (K-562 leukemia) | GI50 (MOLT-4 leukemia) | TGI (MOLT-4 leukemia) | GI50 (NCI-H23 lung) | TGI (NCI-H23 lung) | GI50 (OVCAR-5 ovarian) | TGI (OVCAR-5 ovarian) | GI50 (RPMI-8226 leukemia) | TGI (RPMI-8226 leukemia) | GI50 (SK-MEL-2 melanoma) | TGI (SK-MEL-2 melanoma) | GI50 (SNB-75 CNS) | TGI (SNB-75 CNS)
1 | CN(C)CCCNc1nccc(-c2c(-c3ccc(F)cc3)nn3cc(C(F)(F)F)ccc23)n1 | 8.08 µM | > 25 µM | 8.66 µM | > 25 µM | 10.2 µM | > 25 µM | 4.81 µM | 14.2 µM | 6.37 µM | 17.3 µM | > 25 µM | > 25 µM | 11.2 µM | > 25 µM | 10.2 µM | > 25 µM | 5.33 µM | 14.2 µM | 5.97 µM | > 16.9 µM
2 | O=C(c1cccs1)c1c(C(F)(F)F)n([O-])c2ccc(F)cc2[n+]1=O | 0.662 µM | 1.98 µM | 0.922 µM | 2.41 µM | 0.279 µM | 1.49 µM | 0.0904 µM | 0.27 µM | 0.3 µM | 1.02 µM | 1.22 µM | 2.6 µM | 1.76 µM | 3.21 µM | 0.188 µM | 0.485 µM | 0.841 µM | 2.37 µM | 1.47 µM | 2.82 µM
3 | O=C1/C(=C/c2ccccc2)CCC/C1=C\c1ccccc1 | 18.5 µM | 36.5 µM and 51.1 µM and > 100 µM | – | 5.86 µM and 3.09 µM and 3.33 µM | 8.37 µM and 14.6 µM | 14.1 µM and 29.4 µM and > 100 µM | 20.3 µM and 4.56 µM | 36.5 µM and 32.9 µM and > 100 µM | 15.1 µM and 11.1 µM | 36.5 µM and 71.1 µM and 70.2 µM | 6.88 µM | 12.3 µM and 21.9 µM and 36.4 µM | 6.75 µM and 22 µM | 12 µM and 31.7 µM and 43.3 µM | 2.89 µM and 2.23 µM | 36.5 µM and > 20.1 µM and 5.89 µM | 6.19 µM and 22.7 µM | 13.9 µM and 35.5 µM and 49.9 µM | 6.22 µM | 13.2 µM and 51.2 µM and 52.1 µM
4 | CC[C@H](C)n1cc(C)c2c(C(=O)NCc3c(C)cc(C)[nH]c3=O)cc(-c3ccc(N4CCNCC4)nc3)cc21 | 18 µM and 11.1 µM | 35.9 µM and 26.3 µM | 10.1 µM and 9.6 µM | 21.6 µM and 22.1 µM | 12.9 µM and 16.4 µM | 27.4 µM and 33.2 µM | 2.87 µM and 3.2 µM | 8.09 µM and 10.9 µM | 5.87 µM and 6.18 µM | 20.6 µM and 22 µM | 18 µM and 17.6 µM | 34.3 µM and 34 µM | 16.1 µM and 15.3 µM | 30.5 µM and 29.9 µM | 11.4 µM and 11.7 µM | 28 µM and 28.9 µM | 17.5 µM and 15.4 µM | 32.9 µM and 29.9 µM | 6.12 µM and 3.63 µM | 19.8 µM and 17.6 µM
5 | CCOC(=O)c1c(C)n2c(=O)cc(C)c3c(OC(C)=O)c(OC(C)=O)cc1c32 | 1.44 µM | 6.45 µM | 3.56 µM | 17 µM | 4.78 µM | 41.9 µM | 3.86 µM | > 37.9 µM | 3.13 µM | > 25.5 µM | 4.64 µM | > 34.7 µM | 11.9 µM | 42.2 µM | 2.75 µM | 8.33 µM | 4.57 µM | 29.8 µM | 6.08 µM | > 28.3 µM
6 | Nc1ccccc1NC(=O)c1ccc(CN2CCC/C(=C\c3cccc(Cl)c3)C2=O)cc1 | 0.866 µM | > 100 µM | 0.0448 µM | > 100 µM | 0.337 µM | 13.6 µM | 0.0399 µM | > 100 µM | 0.474 µM | > 100 µM | 0.342 µM | 24.2 µM | 0.45 µM | > 100 µM | 0.921 µM | 4.58 µM | 1.23 µM | 18.2 µM | 0.284 µM | 9.04 µM
7 | COc1cc2cc[n+]3c4cc(OC)c(OC)cc4c(C)cc3c2cc1OC | – | > 100 µM | – | > 100 µM | – | > 100 µM | – | > 100 µM | – | > 100 µM | – | > 100 µM | – | > 100 µM | – | > 100 µM | – | > 100 µM | – | > 100 µM
8 | C=C1CCC2C3(C)COC(c4ccc(SC)cc4)OC3CCC2(C)C1C/C=C1/C(=O)OCC1O (centres undefined) | 2.92 µM | 13.7 µM | 1.76 µM | 3.44 µM | 4.3 µM | 15.9 µM | 2.66 µM | 12.2 µM | 3.43 µM | 20.9 µM | 4.48 µM | 17.4 µM | 10.3 µM | 25.2 µM | 2.64 µM | 15.1 µM | 3.73 µM | 15.5 µM | 10.1 µM | 21.7 µM
9 | COC(=O)c1ccc([N+](=O)[O-])c(O)c1 | – | > 100 µM | – | > 100 µM | – | > 100 µM | – | > 100 µM | – | > 100 µM | – | > 100 µM | – | > 100 µM | – | > 100 µM | – | > 100 µM | – | > 100 µM
10 | Cc1ccccc1N=Nc1c(O)[nH]c2ccccc12 | – | > 100 µM | – | > 100 µM | – | > 100 µM | – | > 100 µM | – | > 100 µM | – | > 100 µM | – | > 100 µM | – | > 100 µM | – | > 100 µM | – | > 100 µM
11 | Oc1cc(O)c2c(=S)cc(-c3ccc(Cl)cc3)oc2c1 | 4.02 µM | > 63.1 µM | 2.84 µM | 10.4 µM | 0.533 µM | 16.5 µM | 3.48 µM | 22.3 µM | 3.76 µM | 34.2 µM | 2.06 µM | 8.8 µM | 11.1 µM | 32.5 µM | 2.82 µM | 9.9 µM | 2.61 µM | 7.46 µM | 2.23 µM | 13.8 µM
12 | COc1cccc(NC(=O)CC(=O)N2NC(C)C(N=Nc3cccc(C(=O)O)c3)C2=O)c1 (centres undefined) | – | > 100 µM | – | > 100 µM | – | > 100 µM | – | > 100 µM | – | > 100 µM | – | > 100 µM | – | > 100 µM | – | > 100 µM | – | > 100 µM | – | > 100 µM
13 | Cc1cc(C)cc(Sc2c([N+](=O)[O-])ncn2C)c1 | – | > 100 µM | – | 32.4 µM | – | 55.1 µM | – | > 100 µM | – | 38.2 µM | – | 33.3 µM | – | 53.5 µM | – | > 100 µM | – | 25.8 µM | – | 62.5 µM
14 | N#Cc1c(NC(=O)CN2CCOCC2)sc2c1CCCC2 | > 25 µM | > 25 µM | > 25 µM | > 25 µM | > 25 µM | > 25 µM | > 25 µM | > 25 µM | > 25 µM | > 25 µM | > 25 µM | > 25 µM | > 25 µM | > 25 µM | > 25 µM | > 25 µM | > 25 µM | > 25 µM | > 25 µM | > 25 µM
